Columns and labels:
[1] = test system: U-251; assay: Antiproliferative activity against human U-251 cells after 48 hrs by MTT assay; assay type: functional, cell-based; details: U-251, 48 h
[2] = test system: A549; assay: Antiproliferative activity against human A549 cells after 48 hrs by MTT assay; assay type: functional, cell-based; details: A549, 48 h
[3] = test system: NCI-H460; assay: Antiproliferative activity against human NCI-H460 cells after 48 hrs by MTT assay; assay type: functional, cell-based; details: NCI-H460, 48 h
[4] = test system: MCF7; assay: Antiproliferative activity against human MCF7 cells after 48 hrs by MTT assay; assay type: functional, cell-based; details: MCF7, 48 h
[5] = species on record: Sus scrofa; assay: (§1) Inhibition of pig brain tubulin polymerization at 1 uM by spectrometric method relative to control; assay type: tissue-based
[6] = species on record: Sus scrofa; assay: Inhibition of pig brain tubulin polymerization at 10 uM by spectrometric method relative to control; assay type: tissue-based
[7] = test system: A549; assay: Cell cycle arrest in human A549 cells assessed as G0/G1 phase at 500 nM incubated for 24 hrs by propidium iodide staining based flow cytometry analysis (reference value: 79.14%); assay type: functional
[8] = test system: A549; assay: Cell cycle arrest in human A549 cells assessed as G2/M phase at 500 nM measured after 24 hrs by propidium iodide staining based flow cytometry analysis (reference value: 6.08%); assay type: functional
[9] = test system: A549; assay: Cell cycle arrest in human A549 cells assessed as S phase at 500 nM measured after 24 hrs by propidium iodide staining based flow cytometry analysis (reference value: 14.78%); assay type: functional
[10] = test system: U-251; assay: Cell cycle arrest in human U-251 cells assessed as G0/G1 phase at 200 nM measured after 24 hrs by propidium iodide staining based flow cytometry analysis (reference value: 67.34%); assay type: functional
[11] = test system: U-251; assay: Cell cycle arrest in human U-251 cells assessed as G2/M phase at 200 nM measured after 24 hrs by propidium iodide staining based flow cytometry analysis (reference value: 14.43%); assay type: functional
[12] = test system: U-251; assay: Cell cycle arrest in human U-251 cells assessed as S phase at 200 nM measured after 24 hrs by propidium iodide staining based flow cytometry analysis (reference value: 18.23%); assay type: functional
[13] = test system: A549; assay: Induction of apoptosis in human A549 cells assessed as increase in viable cells at 500 nM measured after 24 hrs by PI/FITC analysis (reference value: 98.4%); assay type: functional
[14] = test system: A549; assay: Induction of apoptosis in human A549 cells assessed as increase in early apoptotic cells at 500 nM measured after 24 hrs by PI/FITC analysis (reference value: 0.955%); assay type: functional
[15] = test system: A549; assay: Induction of apoptosis in human A549 cells assessed as increase in necrotic cells at 500 nM measured after 24 hrs by PI/FITC analysis (reference value: 0.365%); assay type: functional
[16] = test system: U-251; assay: Induction of apoptosis in human U-251 cells assessed as increase in viable cells at 200 nM measured after 24 hrs by PI/FITC analysis (reference value: 98.3%); assay type: functional
[17] = test system: U-251; assay: Induction of apoptosis in human U-251 cells assessed as increase in early apoptotic cells at 200 nM measured after 24 hrs by PI/FITC analysis (reference value: 1.12%); assay type: functional
[18] = test system: U-251; assay: Induction of apoptosis in human U-251 cells assessed as increase in late apoptotic cells at 200 nM measured after 24 hrs by PI/FITC analysis (reference value: 0.311%); assay type: functional
[19] = test system: U-251; assay: Induction of apoptosis in human U-251 cells assessed as increase in necrotic cells at 200 nM measured after 24 hrs by PI/FITC analysis (reference value: 0.301%); assay type: functional
[20] = as §1; assay type: tissue-based, Sus scrofa
[21] = target: 3',5'-cyclic-AMP phosphodiesterase 4C (Homo sapiens, UniProt Q08493); assay: Inhibition of PDE4 CAT (unknown origin)
Sequence of 3',5'-cyclic-AMP phosphodiesterase 4C (Q08493 whole entry): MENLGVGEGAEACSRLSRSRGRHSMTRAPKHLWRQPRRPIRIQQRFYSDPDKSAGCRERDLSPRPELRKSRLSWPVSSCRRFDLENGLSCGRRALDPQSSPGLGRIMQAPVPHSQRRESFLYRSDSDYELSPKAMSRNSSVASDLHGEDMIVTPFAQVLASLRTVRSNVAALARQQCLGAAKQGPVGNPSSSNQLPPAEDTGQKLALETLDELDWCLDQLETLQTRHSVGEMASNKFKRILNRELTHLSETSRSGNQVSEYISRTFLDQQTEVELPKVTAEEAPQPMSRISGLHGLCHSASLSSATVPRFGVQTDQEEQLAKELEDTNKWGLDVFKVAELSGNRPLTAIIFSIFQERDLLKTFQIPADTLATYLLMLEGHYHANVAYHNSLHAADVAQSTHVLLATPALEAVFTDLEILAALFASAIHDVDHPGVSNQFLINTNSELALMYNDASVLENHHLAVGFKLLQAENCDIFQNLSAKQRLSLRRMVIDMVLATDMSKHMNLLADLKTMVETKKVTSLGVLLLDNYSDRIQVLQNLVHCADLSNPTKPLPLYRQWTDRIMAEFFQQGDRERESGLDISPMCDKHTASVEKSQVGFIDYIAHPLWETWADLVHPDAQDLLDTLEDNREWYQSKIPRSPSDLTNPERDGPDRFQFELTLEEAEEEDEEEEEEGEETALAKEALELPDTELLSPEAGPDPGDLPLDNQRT

[22] = test system: A549; assay: Induction of apoptosis in human A549 cells assessed as increase in late apoptotic cells at 500 nM measured after 24 hrs by PI/FITC analysis (reference value: 0.955%); assay type: functional

IC50 [1] [µM]	IC50 [2] [µM]	IC50 [3] [µM]	IC50 [4] [µM]	SMILES	further results
> 25	16.7	> 25	> 25	COc1cc(-c2cccc3nc(-c4cccc(C)c4)oc23)cc(OC)c1OC	–
9.5	9.6	> 25	> 25	COc1ccc(-c2cccc3nc(-c4ccc5cc[nH]c5c4)oc23)c(OC)c1OC	–
1.04	0.72	0.31	> 25	COc1cc(-c2cccc3nc(-c4ccc(N)cc4)oc23)cc(OC)c1OC	inhibition [5]: 11%; inhibition [6]: 36%
3.2	0.68	1.9	> 25	COc1cc(-c2cccc3nc(-c4ccc(C)cc4)oc23)cc(OC)c1OC	inhibition [6]: 18%
1.7	1.8	2.8	> 25	COc1ccc(-c2nc3cccc(-c4cc(OC)c(OC)c(OC)c4)c3o2)cc1F	–
1.6	5.6	> 25	> 25	COc1cc(-c2cccc3nc(-c4ccc(Cl)cc4)oc23)cc(OC)c1OC	–
16.2	20.2	3.1	> 25	COc1cc(-c2cccc3oc(-c4ccc(C)cc4)nc23)cc(OC)c1OC	–
> 25	> 25	9	> 25	COc1cc(-c2cccc3oc(-c4ccccc4)nc23)cc(OC)c1OC	–
> 25	> 25	> 25	> 25	COc1cc(-c2cccc3nc(-c4ccc(Br)cc4)oc23)cc(OC)c1OC	–
> 25	20.1	8.9	> 25	COc1ccc(-c2nc3c(-c4cc(OC)c(OC)c(OC)c4)cccc3o2)cc1OC	–
18.5	> 25	> 25	> 25	COc1cc(-c2cccc3nc(-c4cccc(Cl)c4)oc23)cc(OC)c1OC	–
2.9	2.6	3.3	> 25	COc1cc(-c2cccc3nc(-c4cccc(F)c4)oc23)cc(OC)c1OC	–
3.5	20.3	6.8	> 25	COc1cc(-c2cccc3nc(-c4ccccc4)oc23)cc(OC)c1OC	–
10.3	15.7	2	> 25	COc1cc(-c2nc3cccc(-c4cc(OC)c(OC)c(OC)c4)c3o2)ccc1O	–
19.4	> 25	19.9	> 25	COc1ccc(-c2nc3c(-c4cc(OC)c(OC)c(OC)c4)cccc3o2)cc1F	–
> 25	> 25	> 25	> 25	COc1cc(-c2cccc3oc(-c4cccc(F)c4)nc23)cc(OC)c1OC	–
2.2	4.7	2.6	> 25	COc1cc(-c2cccc3nc(-c4cccc(N)c4)oc23)cc(OC)c1OC	inhibition [5]: 14%; inhibition [6]: 19%
> 25	> 25	8.6	> 25	COc1cc(-c2cccc3oc(-c4ccc(Cl)cc4)nc23)cc(OC)c1OC	–
5.5	2	1.9	> 25	COc1cc(-c2cccc3nc(-c4cccc(O)c4)oc23)cc(OC)c1OC	IC50 [20]: 5 µM; inhibition [6]: 43%
1.3	2.8	> 25	> 25	COc1ccc(-c2nc3cccc(-c4cc(OC)c(OC)c(OC)c4)c3o2)cc1OC	–
3	12.5	1.6	> 25	COc1cc(-c2cccc3nc(-c4cccs4)oc23)cc(OC)c1OC	inhibition [6]: 0%; IC50 [21]: 570 nM
> 25	8.7	8.7	> 25	COc1cc(-c2cccc3nc(-c4ccc(F)cc4)oc23)cc(OC)c1OC	–
> 100	> 100	> 100	> 100	COc1ccc(C2CNC(=O)C2)cc1OC1CCCC1 (stereo not drawn) [ROLIPRAM]	Activity [7]: 79.7%; Activity [8]: 4.56%; Activity [9]: 15.73%; Activity [10]: 68.42%; Activity [11]: 14.73%; Activity [12]: 16.85%; Activity [13]: 98.2%; Activity [14]: 1.34%; Activity [22]: 0.291%; Activity [15]: 0.216%; Activity [16]: 96.4%; Activity [17]: 1.96%; Activity [18]: 0.865%; Activity [19]: 0.745%
6.8	2.1	3.8	> 25	COc1cc(-c2cccc3nc(-c4cccc(Br)c4)oc23)cc(OC)c1OC	–
> 25	> 25	22.1	> 25	COc1cc(-c2cccc3oc(-c4ccc(F)cc4)nc23)cc(OC)c1OC	–
10.6	10.3	2.6	> 25	COc1cc(-c2cccc3nc(-c4ccco4)oc23)cc(OC)c1OC	inhibition [6]: 0%; IC50 [21]: 3300 nM
> 25	16.3	5.7	> 25	COc1cc(OC)cc(-c2nc3c(-c4cc(OC)c(OC)c(OC)c4)cccc3o2)c1	–
> 25	3.5	> 25	> 25	COc1cccc(-c2nc3cccc(-c4cc(OC)c(OC)c(OC)c4)c3o2)c1	–
> 25	2.2	3.5	> 25	COc1ccc(-c2nc3cccc(-c4cc(OC)c(OC)c(OC)c4)c3o2)cc1	–

SMILES	IC50 [1] [µM]	IC50 [2] [µM]	IC50 [3] [µM]	IC50 [4] [µM]	further results
COc1cc2c(c(OC)c1OC)-c1ccc(OC)c(=O)cc1[C@@H](NC(C)=O)CC2 [COLCHICINE]	0.017	0.024	–	0.04	–
COc1ccc(/C=C\c2cc(OC)c(OC)c(OC)c2)cc1O [COMBRETASTATIN A4]	0.13	0.6	0.076	0.42	inhibition [5]: 52%; inhibition [6]: 94%; Activity [7]: 37.63%; Activity [8]: 40.07%; Activity [9]: 22.31%; Activity [10]: 34.64%; Activity [11]: 42.9%; Activity [12]: 22.47%; Activity [13]: 77.9%; Activity [14]: 10.1%; Activity [15]: 0.412%; Activity [16]: 92.1%; Activity [17]: 4.02%; Activity [18]: 11.9%; Activity [19]: 1.96%

Reference: ChEMBL document CHEMBL4831506, “Discovery of novel trimethoxyphenylbenzo[d]oxazoles as dual tubulin/PDE4 inhibitors capable of inducing apoptosis at G2/M phase arrest in glioma and lung cancer cells” (Eur J Med Chem, 2021)
